target: T1, Indoleamine 2,3-dioxygenase (Homo sapiens, UniProt P14902); assay: SKOV-3 cellular Indoleamine 2,3-dioxygenase assay; settings: SKOV-3 cells, 50 ng/ml Interferon gamma, 100 μM L-Tryptophan, 24 hours, N-Formylkynurenin fluorescence detection; read-out: cell based activity
T1 construct: endogenous in cells; host or cells: SKOV-3 (ATCC HTB-77), stimulated with interferon gamma
Protocol: SKOV-3 cellular Indoleamine 2,3-dioxygenase assay
SKOV-3 cells were obtained from the American Type Culture Collection (ATCC® HTB-77™) and maintained in McCoy's medium (Pan Biotech) supplemented with 10% fetal bovine serum and 1% Penicilin/Streptomycin. Cells were kept at 37° C. in a humidified incubator with 5% CO2. For assay preparation, cells were seeded at a density of 2*10^5/ml into black clear bottom 96 well plates in 100 μl medium/well supplemented with 50 ng/ml Interferon gamma (eBioscience, Thermo Fisher Scientific). After cells fully adhered to the plate, dilution series of compounds were added in medium containing additional L-Tryptophan to a final L-Tryptophan concentration of 100 μM. The cells were incubated for 24 hours. Detection of produced N-Formylkynurenin was performed by addition of 3-Methylpiperidine to a final concentration of 200 mM. The plates were sealed and heated to 65° C. for 20 minutes in a water bath. After cooling the fluorescence of each well was recorded with a Victor™X4 (PerkinElmer) plate reader at an emission wavelength of 535 nm and excitation at 405 nm (Tomek et al.; Anal Bioanal Chem (2013) 405:2515-2524., Tomek et al.; Biochim Biophys Acta. 2015 September; 1850(9):1772-80).

T1 sequence (P14902 whole entry): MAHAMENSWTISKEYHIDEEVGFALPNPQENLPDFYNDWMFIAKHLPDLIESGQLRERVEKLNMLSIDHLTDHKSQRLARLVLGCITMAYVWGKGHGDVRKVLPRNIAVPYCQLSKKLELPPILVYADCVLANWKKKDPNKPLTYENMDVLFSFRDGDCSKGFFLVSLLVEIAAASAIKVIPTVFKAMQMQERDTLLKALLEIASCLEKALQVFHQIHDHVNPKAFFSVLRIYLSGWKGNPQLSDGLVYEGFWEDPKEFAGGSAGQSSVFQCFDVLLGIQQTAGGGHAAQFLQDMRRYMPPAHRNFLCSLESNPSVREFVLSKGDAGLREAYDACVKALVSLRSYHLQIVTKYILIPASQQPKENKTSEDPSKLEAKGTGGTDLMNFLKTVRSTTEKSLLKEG

How did the IC50 turn out when `CC(CNS(N)(=O)=O)Oc1nonc1C(=NO)Nc1ccc(F)c(Cl)c1` (single isomer, unassigned) [16/1, N-(3-Chloro-4-fluorophenyl)-N′-hydroxy-4-((1-(sulfamoylamino)propan-2-yl)oxy)-1,2,5-oxadiazole-3-carboximidamide] was run?
Its IC50 is over 1000 nM.

`C[C@@H](CSc1nonc1C(=NO)Nc1ccc(F)c(C(F)F)c1)NC(=O)CS(N)(=O)=O` (single isomer, unassigned) [114/1] was tested. Which IC50 did it give?
The IC50 was under 100 nM.

`C[C@H](CSc1nonc1C(=NO)Nc1ccc(F)c(C(F)F)c1)NC(=O)CCS(N)(=O)=O` (single isomer, unassigned) [114/2] was tested. Which IC50 did it give?
Its IC50 is under 100 nM.

With `C[C@@H](CSc1nonc1C(=NO)Nc1ccc(F)c(C(F)F)c1)NC(=O)CCS(N)(=O)=O` (single isomer, unassigned) [114/3] as the compound, how does the IC50 read?
Its IC50 is under 100 nM.

For `C[C@H](CSc1nonc1/C(=N/O)Nc1ccc(F)c(Br)c1)NC(=O)CS(N)(=O)=O` (single isomer, unassigned) [114/4], which IC50 is on record?
The IC50 was under 100 nM.

`C[C@@H](CSc1nonc1/C(=N/O)Nc1ccc(F)c(Br)c1)NC(=O)CS(N)(=O)=O` (single isomer, unassigned) [114/5] was tested. Which IC50 did it give?
Its IC50 is under 100 nM.

`CC(CNS(N)(=O)=O)Oc1nonc1C(=NO)Nc1ccc(F)c(Cl)c1` (single isomer, unassigned) [Example 16, N-(3-Chloro-4-fluorophenyl)-N′-hydroxy-4-((1-(sulfamoylamino)propan-2-yl)oxy)-1,2,5-oxadiazole-3-carboximidamide] was tested. Which IC50 did it give?
The IC50 was over 1000 nM.

`CC(CSc1nonc1C(=NO)Nc1ccc(F)c(C(F)F)c1)NC(=O)CS(N)(=O)=O` (single isomer, unassigned) [Example 114, N-(1-((4-(N-(3-(difluoromethyl)-4-fluorophenyl)-N′-hydroxycarbamimidoyl)-1,2,5-oxadiazol-3-yl)thio)propan-2-yl)-2-sulfamoylacetamide] was tested. Which IC50 did it give?
Its IC50 is under 100 nM.

For `CC(CSc1nonc1C(=NO)Nc1ccc(F)c(C(F)F)c1)NC(=O)CC(N)=O` (single isomer, unassigned) [Example 115, N^1-(1-((4-(N-(3-(Difluoromethyl)-4-fluorophenyl)-N′-hydroxycarbamimidoyl)-1,2,5-oxadiazol-3-yl)thio)propan-2-yl)malonamide], which IC50 is on record?
The IC50 was under 100 nM.

For `CC(CSc1nonc1C(=NO)Nc1ccc(F)c(C(F)F)c1)NC(=O)CC(N)=O` (single isomer, unassigned) [Example 115/1, N^1-(1-((4-(N-(3-(difluoromethyl)-4-fluorophenyl)-N′-hydroxycarbamimidoyl)-1,2,5-oxadiazol-3-yl)thio)propan-2-yl)malonamide], which IC50 is on record?
The IC50 was under 100 nM.

Which IC50 does the source give for `CS(=O)(=O)NCCOc1nonc1C(=NO)Nc1ccc(F)c(Cl)c1` [1/1] here?
Its IC50 is under 100 nM.

With `O=S(=O)(NCCOc1nonc1C(=NO)Nc1ccc(F)c(Cl)c1)C(F)(F)F` [1/2] as the compound, how does the IC50 read?
Its IC50 is over 1000 nM.

`O=S(=O)(NCCOc1nonc1C(=NO)Nc1ccc(F)c(Cl)c1)C(F)F` [1/3] was tested. Which IC50 did it give?
Its IC50 is under 100 nM.

Which IC50 does the source give for `C[S+]([O-])NCCOc1nonc1C(=NO)Nc1ccc(F)c(Cl)c1` (stereo not drawn) [1/4] here?
The IC50 was 100 to 1000 nM.

Which IC50 does the source give for `Nc1c(NCCOc2nonc2C(=NO)Nc2ccc(F)c(Br)c2)c(=O)c1=O` [2/1] here?
Its IC50 is under 100 nM.

With `Nc1c(NCCOc2nonc2C(=NO)Nc2ccc(F)c(C(F)F)c2)c(=O)c1=O` [2/3] as the compound, how does the IC50 read?
Its IC50 is under 100 nM.

How did the IC50 turn out when `Nc1c(NCCCOc2nonc2C(=NO)Nc2ccc(F)c(Cl)c2)c(=O)c1=O` [2/4] was run?
Its IC50 is under 100 nM.

With `Nc1c(NCCOc2nonc2C(=NO)Nc2ccc(F)c(C(F)(F)F)c2)c(=O)c1=O` [2/5] as the compound, how does the IC50 read?
Its IC50 is under 100 nM.

Which IC50 does the source give for `Nc1c(NCCOc2nonc2C(=NO)Nc2cccc(C(F)(F)F)c2)c(=O)c1=O` [2/6] here?
Its IC50 is under 100 nM.

Which IC50 does the source give for `Nc1c(NCCOc2nonc2C(=NO)Nc2cccc(C(F)F)c2)c(=O)c1=O` [2/7] here?
The IC50 was 100 to 1000 nM.

How did the IC50 turn out when `N[C@@H](CC(=O)NCCOc1nonc1C(=NO)Nc1ccc(F)c(Cl)c1)C(=O)O` [3/1] was run?
The IC50 was 100 to 1000 nM.

How did the IC50 turn out when `O=C(NCCOc1nonc1C(=NO)Nc1ccc(F)c(Cl)c1)C1(O)CNC1` [3/2] was run?
Its IC50 is 100 to 1000 nM.

With `O=C(NCCOc1nonc1C(=NO)Nc1ccc(F)c(Cl)c1)C1(F)CNC1` [3/3] as the compound, how does the IC50 read?
Its IC50 is 100 to 1000 nM.

Which IC50 does the source give for `NC(C(=O)NCCOc1nonc1C(=NO)Nc1ccc(F)c(Cl)c1)C(F)(F)F` (stereo not drawn) [3/4] here?
The IC50 was under 100 nM.

How did the IC50 turn out when `NC(=O)CS(=O)(=O)NCCOc1nonc1C(=NO)Nc1ccc(F)c(C(F)(F)F)c1` [4/1] was run?
Its IC50 is under 100 nM.

With `NC(=O)CS(=O)(=O)NCCOc1nonc1C(=NO)Nc1ccc(F)c(C(F)F)c1` [4/2] as the compound, how does the IC50 read?
The IC50 was under 100 nM.

How did the IC50 turn out when `NS(=O)(=O)NCCOc1nonc1/C(=N/O)Nc1ccc(F)c(Cl)c1` [6/1] was run?
The IC50 was under 100 nM.

Which IC50 does the source give for `NS(=O)(=O)NCCOc1nonc1C(=NO)Nc1ccc(F)c(C(F)F)c1` [6/2] here?
Its IC50 is under 100 nM.

Which IC50 does the source give for `NS(=O)(=O)NCCOc1nonc1C(=NO)Nc1cccc(C(F)F)c1` [6/3] here?
The IC50 was 100 to 1000 nM.

`CN(CCOc1nonc1C(=NO)Nc1ccc(F)c(Cl)c1)S(N)(=O)=O` [6/4] was tested. Which IC50 did it give?
Its IC50 is 100 to 1000 nM.

How did the IC50 turn out when `CNS(=O)(=O)N(C)CCOc1nonc1C(=NO)Nc1ccc(F)c(Cl)c1` [6/5] was run?
Its IC50 is 100 to 1000 nM.

For `CN(C)S(=O)(=O)NCCOc1nonc1C(=NO)Nc1ccc(F)c(Cl)c1` [6/6], which IC50 is on record?
The IC50 was under 100 nM.

For `NC(=O)CC(=O)NCCOc1nonc1C(=NO)Nc1ccc(F)c(Cl)c1` [7/1, N^1-(2-((4-(N-(3-chloro-4-fluorophenyl)-N′-hydroxycarbamimidoyl)-1,2,5-oxadiazol-3-yl)oxy)ethyl)malonamide], which IC50 is on record?
The IC50 was under 100 nM.

Which IC50 does the source give for `COc1nonc1/C(=N/O)Nc1ccc(F)c(Br)c1` [8/1, N-(3-Bromo-4-fluorophenyl)-N-hydroxy-4-methoxy-1,2,5-oxadiazole-3-carboximidamide] here?
Its IC50 is under 100 nM.

With `COc1nonc1C(=NO)Nc1ccc(F)c(Cl)c1` [8/2] as the compound, how does the IC50 read?
The IC50 was 100 to 1000 nM.

With `O/N=C(\Nc1ccc(F)c(Br)c1)c1nonc1OCC(F)(F)F` [8/3, N-(3-Bromo-4-fluorophenyl)-N′-hydroxy-4-(2,2,2-trifluoroethoxy)-1,2,5-oxadiazole-3-carboximidamide] as the compound, how does the IC50 read?
Its IC50 is 100 to 1000 nM.

With `O=C(NCCOc1nonc1C(=NO)Nc1ccc(F)c(Cl)c1)c1ccc(F)cc1` [9/1] as the compound, how does the IC50 read?
Its IC50 is 100 to 1000 nM.

How did the IC50 turn out when `O=C(NCCOc1nonc1C(=NO)Nc1ccc(F)c(Cl)c1)c1ccc2[nH]ccc2c1` [9/2] was run?
Its IC50 is 100 to 1000 nM.

`O=C(NCCOc1nonc1C(=NO)Nc1ccc(F)c(Cl)c1)C1CC1` [9/3] was tested. Which IC50 did it give?
The IC50 was under 100 nM.

Which IC50 does the source give for `O=C(NCCOc1nonc1C(=NO)Nc1ccc(F)c(Cl)c1)c1cnccn1` [9/4] here?
The IC50 was 100 to 1000 nM.

`O=C(NCCOc1nonc1C(=NO)Nc1ccc(F)c(Cl)c1)c1nnc[nH]1` [9/5] was tested. Which IC50 did it give?
The IC50 was 100 to 1000 nM.

With `O=C(CC1SC(=O)NC1=O)NCCOc1nonc1C(=NO)Nc1ccc(F)c(Cl)c1` (stereo not drawn) [9/6] as the compound, how does the IC50 read?
Its IC50 is over 1000 nM.

`O=C(NCCCOc1nonc1C(=NO)Nc1ccc(F)c(Cl)c1)C(O)CO` (stereo not drawn) [9/7] was tested. Which IC50 did it give?
The IC50 was 100 to 1000 nM.

For `O=C(NCCCOc1nonc1C(=NO)Nc1ccc(F)c(Cl)c1)c1nn[nH]n1` [9/8], which IC50 is on record?
The IC50 was over 1000 nM.

`O=C(O)c1ccc(C(=O)NCCOc2nonc2C(=NO)Nc2ccc(F)c(Cl)c2)cc1` [9/9] was tested. Which IC50 did it give?
The IC50 was over 1000 nM.

For `O=C(NCCOc1nonc1C(=NO)Nc1ccc(F)c(Cl)c1)c1n[nH]c(=O)[nH]1` [9/10], which IC50 is on record?
The IC50 was over 1000 nM.

For `CC(C)(C(=O)O)C(=O)NCCOc1nonc1C(=NO)Nc1ccc(F)c(Cl)c1` [9/11], which IC50 is on record?
Its IC50 is over 1000 nM.

With `O=C(NCCOc1nonc1C(=NO)Nc1ccc(F)c(Cl)c1)C1(O)CC1` [9/12] as the compound, how does the IC50 read?
The IC50 was 100 to 1000 nM.

Which IC50 does the source give for `O=C(O)c1cccc(C(=O)NCCOc2nonc2C(=NO)Nc2ccc(F)c(Cl)c2)c1` [9/13] here?
Its IC50 is over 1000 nM.

For `NS(=O)(=O)CC(=O)NCCOc1nonc1C(=NO)Nc1ccc(F)c(Cl)c1` [9/14], which IC50 is on record?
The IC50 was 100 to 1000 nM.

`CS(=O)(=O)CC(=O)NCCOc1nonc1C(=NO)Nc1ccc(F)c(Cl)c1` [9/15] was tested. Which IC50 did it give?
Its IC50 is under 100 nM.

— patent publication US11078168B2, “Substituted N-hydroxyamidinoheterocycles as modulators of indoleamine 2,3-dioxygenase” (PHENEX DISCOVERY VERWALTUNGS-GMBH, priority 2016, dated 2021)
